Data reported in patent US6906179B2, “Antibody to SNIP1” (The General Hospital Corporation, priority 1999, dated 2005).
Where two headings read alike, the source gives them in different places. *1 amine or outer side, *2 acyl side, *3 side chain or, on linkers, in order; H or OH if unused. Where a SMILES comes first, the peptide text is derived from it. Bridges are numbered along the chain shown (N, C = ends). Roman numbers before positions name the chains, in order. [ ]: non-standard residue; d: D form. Actinocin(9to1) = Cc1c2oc3c(C)ccc(C(=O)[*:1])c3nc-2c(C(=O)[*:2])c(N)c1=O; NMeV = CN[C@H](C(=O)O)C(C)C; Sar = CNCC(=O)O

Legend:
[1] = test system: biological activities of BMPs and TGF-beta; assay: Inhibition of the biological activities of BMPs and TGF-beta (summary statement)
rat sympathetic neurons = assay: OP-1 induced dendritic growth of rat sympathetic neurons; format: cell-based; details: for inhibition of OP-1 induced dendritic growth: reversible peptidyl aldehyde inhibitors
Experimental: If Smad1 and DPC4 signal through proteasome mediated proteolysis, proteasome inhibitors should block the signaling of BMPs. We thus directly tested the effects of the proteasome inhibitors on the signaling pathways of BMPs that signal via Smad1 activation. […] The EC50 for the inhibitory activity of lactacystin was ˜100 nM and maximal effects were obtained with 4-6 hour pretreatments (not shown).
To determine the time course of sensitivity to lactacystin with respect to the signaling pathway of OP-1, lactacystin was added to the media at various time points after the addition of OP-1 (FIG. 32, bottom panel B).

endogenous HEF1 [2] = assay: TGF-β regulation of endogenous HEF1 in A549 lung carcinoma cells; format: cell-based
Experimental: In A549 lung carcinoma cells, which predominantly express p115HEF1, a decrease of endogenous p115HEF1 was detected after 15 min exposure to TGF-β. Furthermore, LLnL was able to block the TGF-β induced decrease of endogenous HEF1, indicating the involvement of the proteasome in this event. The change of p105HEF1 in response to TGF-β was also observed, but not as apparent as p115HEF1 due to the very low level of p105HEF1 in this cell line. It was noted that the steady-state level of both p115HEF1 and p105HEF1 increased after 3 hrs of TGF-β stimulation. […] To directly test this, we performed a time-course Northern blot on HEF1 mRNA isolated from A549 cells treated with TGF-β for different time periods. […] Thus, TGF-β down-regulates HEF1 protein level via proteasomal degradation and also induces HEF1 mRNA level via transcriptional activation, which may serve as a negative feedback mechanism to restore HEF1 protein level.

proteasome = details: LLnL versus LLM; cited from earlier work
HEF1 protein level = assay: Smad3-induced proteasomal degradation of HEF1 in 293 cells; format: cell-based; details: for Smad3-induced reduction (degradation) of HEF1 protein level: 293 cells, presence or absence of type I receptors
From the text: Two different forms of HEF1, p115HEF1 and p105HEF1, have been previously reported to be derived from differential phosphorylation (Law et al., 1996, Mol. Cell. Boil. 16: 3327; Minegishi et al., 1996, J. Exp. Med. 184: 1365; Lae et al., 1998, supra). Both forms of HEF1 were detected at a similar level in 293 cells after HEF1 transfection for 24 hrs (data not shown). However, p115HEF1 was the predominant form that associates with Smad3, and to a much lesser extent, with Smad1 and Smad2. Neither p115HEF1 nor p105HEF1 was detected in the immunoprecipitates of Smad4.
It was tested whether the observed reduction of HEF1 level by Smad3 is regulated by TGF-β and activin type I receptor activation and whether the reduction is mediated by proteasomal degradation. The Smad3-mediated reduction of HEF1 protein level was further enhanced in the presence of the overexpressed wildtype TGF-β type I receptor and wildtype activin type I receptor, as well as the constitutively active mutant TGF-β type I receptor (R4T204D) and the activated mutant activin type I receptor (R2T206D)). […]
Like other Smad family proteins, Smad3 can be divided into three subdomains: an amino-terminal MH1 domain, a central linker region and a carboxyl-terminal MH2 domain The N-terminal MH1 domain of Smad3 (Smad3N) has the ability to bind to specific DNA sequences (Massague, 1998, supra; Derynck et al., 1998, Cell 95: 737; Wrana, 2000, Cell 100: 189), whereas the C-terminal MH2 domain interacts with the TGF-β type I receptor as well as multiple transcriptional regulators (Massague, 1998, supra; Derynck, 1998, supra; Wrana, 2000, supra). […] In cells that were not treated with LLnL, p115HEF1 and smaller amount of p105HEF1 were detected in the immunoprecipitates of Smad3N, Smad3C and full length Smad3, with the strongest HEF1 signal detected in the immunoprecipitates of Smad3C. […] In fact, when LLnL stabilizes HEF1, the highest amount of HEF1 was detected in the immunoprecipitates of full length Smad3. […]

SNIP-1 protein level = assay: ALK3Q233D-induced degradation of SNIP-1 in transfected COS cells, Western blot; format: cell-based; details: inhibitors added 10 hours before cell lysis; ALK3Q233D transfected COS cells
From the text: The novel Smad1 interactor is a nuclear proteip (termed as Smad1 Nuclear Interactor Protein 1, SNIP-1, SEQ ID No. 3), with a carboxyterminal domain that is highly homologous to the aminoterminus of the nuclear inhibitor of protein phosphatase 1 (NIPP-1) (Wang & Lechleider, unpublished) (FIG. 31A & C). NIPP-1 (VanEynde et al., 1995) is known to be rapidly processed into smaller heat-stable intermediates, a process that may be mediated by proteasome (see Discussion in Jagiello et al., 1995). SNIP-1 is a strong interactor of Smad1, that also binds to both antizyme and HsN3 in the yeast two-hybrid assays (FIG. 311B).
Forty-eight hours after transfection, COS cells were lysed in an equal volume of lysis buffer (300 ul/plate), and the total protein concentration of each sample was measured. No major difference in protein concentration was detected among the lysates. The protein level of SNIP-1 in 100 ug of total protein lysate was determined by Western blot using anti-T7 monoclonal antibody. […] Such a decrease is dependent upon the coexpression of Smad1, DPC4 and antizyme, since replacing each of these three proteins with an unrelated protein (β galactosidase) abolishes such a decrease in ALK3Q233D transfected cells (FIG. 31D, top panel, lanes 9-14). […] The total amount of proteins in the tested lanes was normalized before loading, and equal loading was confirmed by Western blot using anti-a tubulin (FIG. 31D, bottom panel).
To determine whether the decrease in the level of SNIP-1 protein level is caused by proteasome mediated degradation, we used inhibitors of the proteasome. Proteasome inhibitors that selectively block different proteolytic activities of the proteasome are powerful tools for studying the role of proteasomes in many aspects of cell growth, differentiation and apoptosis (Hilt et al., 1993; Palomebella et al., 1994; Figueiredo-Pereira et al., 1994; Thraenckner et al., 1994; Read et al., 1995; Grimm et al., 1996, for reviews, see Coux et al., 1996). […]

[3] = test system: calpain, cathepsin B, chymotrypsin, trypsin and papain; details: cited from earlier work
ischemic brain injury [4] = details: cited from earlier work
ischemic brain injury [5] = details: single ICV injection of 1 μg/kg at 2, 4 or 6 hour before; assessed 48 hours after injury; cited from earlier work
ischemic brain injury [6] = details: cited from earlier work; remark: listed apart in the source
endogenous HEF1 [7] = assay: TGF-β regulation of endogenous HEF1 in H9 cells, Western blot and pulse chase; format: cell-based, human
Experimental: The ability of TGF-β to regulate the protein level of endogenous HEF1 in TGF-β responsive cells was tested. The human T lymphoblastoid H9 cells were either not exposed to TGF-β or pre-treated with TGF-β for different time periods. Cells were then harvested at the same time and HEF1 protein level was determined by Western blot using anti-HEF1 antibody. […] The predominant form of HEF1 labeled within the 30 min pulse period is p105HEF1. The pulse-labeled p105HEF1 was reduced to basal level within 60 min in TGF-β-stimulated cells but took more than 120 min in the absence of TGF-β. Thus, TGF-β can enhance HEF1 degradation in native H9 cells.

HEF1 mRNA = assay: Induction of HEF1 mRNA in HaCaT cells; format: cell-based

For “N-acetyl-L-Leucinyl-L-Leucinal-L-norleucinal [LLnL]”, which “biological activities of BMPs and TGF-beta” value [1] is on record?
Its value is “able to inhibit”.

And the “inhibition of OP-1 activity, relative concentration” value (rat sympathetic neurons; LLnL versus LLM)?
Its value is “inhibited OP-1 activity at lower concentrations than LLM”.

What about the “inhibition of OP-1 induced dendritic growth” value (rat sympathetic neurons) of the same molecule?
Its value is “Inhibition of OP-1 induced dendritic growth was also observed”.

What about the “TGF-β induced decrease of endogenous HEF1” value (endogenous HEF1 [2]) of the same molecule?
The value was “able to block”.

And the “potency as inhibitor of proteasome activity” value (proteasome)?
The value was “more potent inhibitor of proteasome activity than LLM”.

What about the “Smad3-induced reduction (degradation) of HEF1 protein level” value (HEF1 protein level) of the same molecule?
Its value is “able to block”.

What about the “Smad3N-mediated reduction of p115HEF1” value (HEF1 protein level; HEF1 co-expressed with Smad3N) of the same molecule?
Its value is “blocked”.

And the “ALK3Q233D induced decrease of SNIP-1 protein level” value (shortened to “ALK3Q233D induced decrease”) (SNIP-1 protein level)?
The value was “reversed”.

For `Cc1c2oc3c(C)ccc(C(=O)N[C@@H]4C(=O)N[C@H](C(C)C)C(=O)N5CCC[C@H]5C(=O)N(C)CC(=O)N(C)[C@@H](C(C)C)C(=O)O[C@@H]4C)c3nc-2c(C(=O)N[C@@H]2C(=O)N[C@H](C(C)C)C(=O)N3CCC[C@H]3C(=O)N(C)CC(=O)N(C)[C@@H](C(C)C)C(=O)O[C@@H]2C)c(N)c1=O` [actinomycin D, reference compound] (I: T[dV]P[Sar][NMeV] / II: T[dV]P[Sar][NMeV]; ester I:1-I:C, II:1-II:C; linker I:N-II:N via Actinocin(9to1)), which “increase of steady-state p115HEF1 and p105HEF1 after 3 hrs of TGF-β stimulation” value (endogenous HEF1 [2]) is on record?
Its value is “can be inhibited”.

With `CC(=O)N[C@@H](CSC(=O)[C@]1([C@@H](O)C(C)C)NC(=O)[C@H](C)[C@@H]1O)C(=O)O` [lactacystin] as the molecule, how does the “biological activities of BMPs and TGF-beta” value [1] read?
Its value is “able to inhibit”.

And the EC50 (rat sympathetic neurons; Sympathetic neuron, rat sympathetic neurons, read-out: EC50 for the inhibitory activity on OP-1 induced dendritic growth)?
The EC50 was roughly 100 nM.

And the “OP-1 induced dendritic growth” value (rat sympathetic neurons; added later than 3 hrs after OP-1)?
The value was “resistance to the inhibitory effects developed after 3 hrs and are apparent after 8 hrs”.

And the “OP-1 induced dendritic growth” value (rat sympathetic neurons; added within 3 hrs of OP-1 exposure)?
Its value is “fully inhibited”.

What about the “ability to form dendrites in the presence of OP-1 or BMP-6” value (rat sympathetic neurons; pretreatment for 4 hours) of the same molecule?
The value was “concentration-dependent decrease”.

What about the “axonal growth or cell survival” value (rat sympathetic neurons; rat sympathetic neurons) of the same molecule?
The value was “did not affect”.

And the “activity of other proteases” value [3]?
Its value is “does not inhibit”.

What about the “Smad3-induced reduction (degradation) of HEF1 protein level” value (HEF1 protein level) of the same molecule?
The value was “blocked”.

And the “ALK3Q233D induced decrease” value (SNIP-1 protein level)?
Its value is “reversed”.

What does the source list for “TGF-β1: prototypical member of the TGFβ family of cytokines, exogenously administered”?
deficits in water maze learning ability and asymmetry in somatosensory functions (ischemic brain injury [4]; 10 ng ICV, first 10 days after injury): improved; intensity of microglial activation (ischemic brain injury [4]; 10 ng, 48 hours after ischemic injury): significantly reduced; neuroprotection (ischemic brain injury [4]; 2 or 50 ng on the same schedule): did not provide significant neuroprotection; area of cortical infarction (ischemic brain injury [4]; dose response): bell-shaped dose-response effect; neuroprotection in cortex, thalamus, striatum and dentate gyrus (ischemic brain injury [4]; single ICV dose of 10 ng 2 hours after ischemic injury, assessed 5 days after): significant neuroprotection; CA1-CA4 hippocampal neurons (ischemic brain injury [4]; single ICV dose of 10 ng 2 hours after ischemic injury): not protected; decrease in ischemic area of the neocortex (ischemic brain injury [5]): ≈ 10%; neuroprotection (ischemic brain injury [6]; 0.5 or 50 ng ICV): no neuroprotection; CA1 pyramidal cell survival (ischemic brain injury [6]; same amount (4 ng) by ICV): 48%; pyramidal cell survival (ischemic brain injury [6]; single 4 ng intrahippocampal injection 1 h prior to TFGI, assessed 7 days after): 50%

For `CSCCC(C=O)NC(=O)C(CC(C)C)NC(=O)C(CC(C)C)NC(C)=O` (stereo not drawn) [LLM] (Ac-Leu-Leu-Met-aldehyde; configuration not given here), which “inhibition of OP-1 induced dendritic growth” value (rat sympathetic neurons) is on record?
Its value is “Inhibition of OP-1 induced dendritic growth was also observed”.

And the “ALK3Q233D induced decrease” value (SNIP-1 protein level)?
The value was “reversed”.

For TGF-β, which “exposure after which decrease of endogenous p115HEF1 was detected” value (endogenous HEF1 [2]) is on record?
The value was 15 min.

What about the “steady-state level of p115HEF1 and p105HEF1” value (endogenous HEF1 [2]; after 3 hrs of TGF-β stimulation) of the same molecule?
The value was “increased”.

What about the “level of HEF1 mRNA, Northern blot” value (endogenous HEF1 [2]; as early as 1 hr after treatment) of the same molecule?
Its value is “dramatically increased”.

And the “steady-state levels of p115 and p105 HEF1” value (endogenous HEF1 [7])?
Its value is “started to decrease after 30 min exposure”.

And the “time for pulse-labeled p105HEF1 to be reduced to basal level” value (endogenous HEF1 [7]; TGF-β-stimulated, 30 min pulse)?
The value was no more than 60 min.

And the p105HEF1 level (endogenous HEF1 [7]; after 3 hrs of TGF-β treatment)?
The p105HEF1 level was “greatly reduced”.

And the p115HEF1 level (endogenous HEF1 [7]; after 3 hrs of TGF-β treatment)?
Its p115HEF1 level is “almost undetectable”.

And the “HEF1 mRNA” value (HEF1 mRNA)?
Its value is “induction of HEF1 mRNA”.
